Results from article PMC5603535, “A network integration approach for drug-target interaction prediction and computational drug repositioning from heterogeneous information” (Nature Communications, 2017).
Where “and” joins values, the source holds several entries; their conditions need not be identical. Equal entries are not always repeated. Entries after “also recorded” stand apart in the source; their conditions may differ.

Columns and labels:
COX-2 [1] = target: T1, COX-2 (Homo sapiens, UniProt P35354); assay: Human recombinant enzyme assay (PGE2 by ELISA): COX-2; format: biochemical; settings: PGE2 levels, 10 μM arachidonic acid
T1 sequence (P35354 18-604): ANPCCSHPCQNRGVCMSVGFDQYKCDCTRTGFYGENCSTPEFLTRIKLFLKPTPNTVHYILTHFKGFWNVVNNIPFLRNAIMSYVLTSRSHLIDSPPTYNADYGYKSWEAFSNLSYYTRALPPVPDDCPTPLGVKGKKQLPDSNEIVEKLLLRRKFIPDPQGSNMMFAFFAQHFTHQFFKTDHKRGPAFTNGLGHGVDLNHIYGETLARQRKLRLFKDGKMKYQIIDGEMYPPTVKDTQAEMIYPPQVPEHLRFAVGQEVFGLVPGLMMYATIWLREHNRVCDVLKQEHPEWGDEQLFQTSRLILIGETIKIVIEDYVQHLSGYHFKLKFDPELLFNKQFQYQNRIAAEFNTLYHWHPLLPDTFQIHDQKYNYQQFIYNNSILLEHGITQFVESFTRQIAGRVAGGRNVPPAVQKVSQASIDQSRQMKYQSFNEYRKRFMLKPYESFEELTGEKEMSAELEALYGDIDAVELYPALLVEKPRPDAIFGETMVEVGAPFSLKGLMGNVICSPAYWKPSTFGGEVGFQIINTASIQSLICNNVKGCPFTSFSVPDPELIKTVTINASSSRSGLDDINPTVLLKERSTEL
Procedure: (§1) Next, the tissue extracts from the mouse kidney and the peritoneal macrophages were used for COX selective inhibition assays. […] To further evaluate the selectivity of these predicted drugs on COX-1 and COX-2, we also used the human recombinant enzyme assays to measure the levels of PGE 2 under COX-1 and COX-2 catalyzes, respectively.
(§2) Then the 10 μM arachidonic acid was added to start the reaction and allowed the process to proceed for 10 min. The reaction was terminated by diluting the reaction into buffer containing 25 μM indomethacin. The final levels of PGE 2 were measured by ELISA.

COX-2 [2] = target: T1, COX-2; settings: compounds at their IC50 concentrations, 2 h
COX-2 [3] = target: T2, COX-2 (Mus musculus, UniProt Q05769); assay: COX selective inhibition assay on tissue extracts (COX fluorescent activity, distinguished with SC-560/Dup-697): COX-2; format: biochemical; settings: mouse peritoneal macrophage lysates
T2 construct: the tissue extracts from the mouse kidney and the peritoneal macrophages; from tissue; host or cells: mouse kidney and thioglycollate-elicited peritoneal macrophages (C57BL/6J), homogenate supernatant
T2 sequence (Q05769 18-604): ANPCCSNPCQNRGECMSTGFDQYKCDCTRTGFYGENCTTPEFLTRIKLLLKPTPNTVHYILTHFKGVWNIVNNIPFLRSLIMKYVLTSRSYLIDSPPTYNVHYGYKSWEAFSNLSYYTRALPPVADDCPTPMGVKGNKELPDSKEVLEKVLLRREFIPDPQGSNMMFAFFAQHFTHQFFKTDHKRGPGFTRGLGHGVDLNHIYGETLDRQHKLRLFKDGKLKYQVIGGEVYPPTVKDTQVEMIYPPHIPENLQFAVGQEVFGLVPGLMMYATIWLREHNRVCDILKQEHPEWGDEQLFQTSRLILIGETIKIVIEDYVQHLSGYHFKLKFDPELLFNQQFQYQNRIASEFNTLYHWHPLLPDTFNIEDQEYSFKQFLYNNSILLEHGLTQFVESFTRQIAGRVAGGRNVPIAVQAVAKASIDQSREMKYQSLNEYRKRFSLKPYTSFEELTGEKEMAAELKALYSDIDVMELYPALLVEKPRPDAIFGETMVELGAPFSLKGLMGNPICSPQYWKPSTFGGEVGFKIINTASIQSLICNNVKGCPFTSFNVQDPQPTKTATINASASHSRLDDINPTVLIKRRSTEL
Procedure: as §1
(§3) Peritoneal macrophages were isolated from peritoneum by lavage using 20 ml Dulbecco's modified Eagle’s medium (DMEM) and seeded into six-well plates using […] in DMEM of 10% fetal bovine serum (FBS). Non-adherent cells were removed 6 h later, whereas adherent cells were refed with DMEM of 10% FBS and allowed to recover overnight. […] Cells were harvested for subsequent analysis.
(§4) Following stimulation, kidneys were harvested from mice, and macrophages from the above treatment were homogenized in 5 ml of cold phosphate-buffered saline (PBS) containing protease inhibitors and centrifuged at 10,000×g for 15 min at 4 °C. The supernatant was assayed by the COX fluorescent activity assay kit according to the manufacturer’s instructions.

COX-1 [4] = target: T3, COX-1 (Mus musculus, UniProt P22437); assay: COX selective inhibition assay on tissue extracts (COX fluorescent activity, distinguished with SC-560/Dup-697): COX-1; format: biochemical; settings: mouse peritoneal macrophage lysates
T3 construct: the tissue extracts from the mouse kidney and the peritoneal macrophages; from tissue; host or cells: mouse kidney and thioglycollate-elicited peritoneal macrophages (C57BL/6J), homogenate supernatant
T3 sequence (P22437 27-602): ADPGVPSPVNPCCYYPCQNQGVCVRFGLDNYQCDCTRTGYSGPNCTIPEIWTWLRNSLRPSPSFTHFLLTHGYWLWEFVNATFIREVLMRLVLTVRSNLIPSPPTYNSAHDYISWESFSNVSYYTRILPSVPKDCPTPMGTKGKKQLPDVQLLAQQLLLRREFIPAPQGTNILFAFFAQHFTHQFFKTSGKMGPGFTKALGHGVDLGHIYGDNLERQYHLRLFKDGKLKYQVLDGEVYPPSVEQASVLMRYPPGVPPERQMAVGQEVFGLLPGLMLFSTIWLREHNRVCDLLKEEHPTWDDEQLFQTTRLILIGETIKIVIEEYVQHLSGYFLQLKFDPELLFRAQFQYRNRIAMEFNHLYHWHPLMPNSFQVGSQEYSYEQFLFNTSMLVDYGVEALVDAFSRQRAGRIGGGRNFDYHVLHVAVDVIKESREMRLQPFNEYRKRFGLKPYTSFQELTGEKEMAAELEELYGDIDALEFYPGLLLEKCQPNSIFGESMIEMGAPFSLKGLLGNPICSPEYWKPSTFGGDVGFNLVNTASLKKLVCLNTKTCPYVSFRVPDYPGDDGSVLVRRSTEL
Procedure: as §1, §3, §4

COX = COX fluorescent activity assay on mouse kidney lysates; format: biochemical
Procedure: We further sought to experimentally validate the bioactivities of the COX inhibitors predicted by DTINet (Methods). First, we tested their inhibitory potencies on the mouse kidney lysates using the COX fluorescent activity assays.
as §4

[5] = test system: LPS-stimulated peritoneal macrophages; assay: RT-PCR of proinflammatory factors in LPS-stimulated peritoneal macrophages; format: cell-based, mouse; settings: LPS 10 ng/ml
Procedure: Lipopolysaccharide (LPS) was used to stimulate the cultured peritoneal macrophages for the cellular inflammation model.
as §3
Total RNA was extracted from the whole-cell lysates using the Trnzol-A^+ reagent (Tiangen, Cat. no. DP421, China). Reverse transcription was performed using TIANScript RT Kit (Tiangen, Cat. no. KR104-02, China). All real-time PCR reactions were carried out on ABI ViiA 7 Real-Time System (Life Technologies, USA) using TransStart Top Green qPCR SuperMix (Transgen, Cat. no. AQ131-03, China). The formula 2^−ΔΔCt was used to calculate the relative expression. The expression of the housekeeping gene GAPDH was used as an internal control.

alpha2-containing GlyRs = test system: alpha2-containing GlyRs; parameters: method as in Thio et al., 2003; settings: embryonic mouse hippocampal neurons, low-affinity binding manner, ref Thio et al., 2003; cited from earlier work
recombinant human COX-1 = recombinant human COX-1 (Homo sapiens, UniProt P23219); assay: Human recombinant enzyme assay (PGE2 by ELISA): COX-1; format: biochemical; settings: PGE2 levels, 10 μM arachidonic acid
Procedure: as §1, §2

GlyRs = test system: GlyRs; parameters: method as in Liu et al., 2009; settings: rat hippocampal neurons, ref Liu et al., 2009; cited from earlier work
[6] = test system: GABA A-subtype (GABA-A) receptors; parameters: method as in ref 28 (Wassef et al., 2003); settings: previous studies, ref 28 (Wassef et al., 2003); cited from earlier work
[7] = test system: GABA B-subtype (GABA-B) receptors; parameters: method as in ref 27 (Wu et al., 2011); settings: previous studies, ref 27 (Wu et al., 2011); cited from earlier work
COX-1 [8] = settings: read-out: IC50 COX-1; common NSAIDs; cited from earlier work
COX-2 [9] = settings: cited from earlier work

Chain of recombinant human COX-1 (P23219 24-599): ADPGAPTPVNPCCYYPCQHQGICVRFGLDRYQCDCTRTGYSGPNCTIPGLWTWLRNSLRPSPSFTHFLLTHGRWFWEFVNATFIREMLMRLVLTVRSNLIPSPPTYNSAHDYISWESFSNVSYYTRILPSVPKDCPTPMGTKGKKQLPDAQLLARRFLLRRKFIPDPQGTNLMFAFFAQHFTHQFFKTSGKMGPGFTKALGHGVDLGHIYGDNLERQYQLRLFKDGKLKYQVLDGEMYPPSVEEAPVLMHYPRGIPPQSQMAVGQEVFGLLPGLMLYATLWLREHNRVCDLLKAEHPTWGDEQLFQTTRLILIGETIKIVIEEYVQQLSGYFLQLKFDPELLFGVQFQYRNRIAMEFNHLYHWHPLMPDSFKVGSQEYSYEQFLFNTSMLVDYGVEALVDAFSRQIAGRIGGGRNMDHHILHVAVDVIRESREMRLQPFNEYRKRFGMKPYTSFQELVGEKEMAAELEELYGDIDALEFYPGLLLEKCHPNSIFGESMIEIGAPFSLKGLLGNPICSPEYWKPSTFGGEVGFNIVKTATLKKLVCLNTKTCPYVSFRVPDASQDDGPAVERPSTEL

| Compound | IC50 (COX-2 [1]) [µM] | inhibition of the binding of [3H] celecoxib to COX-2 (COX-2 [2]) | Relative COX activity inhibition (%) COX-2 (COX-2 [3]) [%] | Relative COX activity inhibition (%) COX-1 (COX-1 [4]) [%] | IC50 (COX) | also measured |
| --- | --- | --- | --- | --- | --- | --- |
| NCCCC(O)(P(=O)(O)O)P(=O)(O)O [Alendronate] | 184 | ~40.67% | 43 | 57 | 160 µM | IL-12p35 production induced by LPS (mRNA, RT-PCR) [5]: significantly inhibited |
| CNC1=Nc2ccc(Cl)cc2C(c2ccccc2)=[N+]([O-])C1 [Chlordiazepoxide] | – | – | – | – | – | effect on alpha2-containing GlyRs (alpha2-containing GlyRs): block |
| CCCNC(=O)NS(=O)(=O)c1ccc(Cl)cc1 [Chlorpropamide] | 152 | ~14.00% | 63 | 37 | 290 µM and ~300 µM | IC50 (recombinant human COX-1): 224 µM |
| CN1CCN(C2=Nc3cc(Cl)ccc3Nc3ccccc32)CC1 [Clozapine] | – | – | – | – | – | effect on GlyRs (GlyRs): non-competitive antagonist; effect on GABA-A receptors in the cortex [6]: antagonize; interaction with GABA-B receptors [7]: direct interaction |
| O=C1CN=C(c2ccccc2)c2cc([N+](=O)[O-])ccc2N1 [Nitrazepam] | – | – | – | – | – | effect on alpha2-containing GlyRs (alpha2-containing GlyRs): block |
| CCCc1nc2c(C)cc(-c3nc4ccccc4n3C)cc2n1Cc1ccc(-c2ccccc2C(=O)O)cc1 [Telmisartan] | 91.8 | about 48.33% | 37 | 63 | 56.1 µM | IC50 (recombinant human COX-1): 42 µM; IL-12p35 production induced by LPS (mRNA, RT-PCR) [5]: significantly inhibited; also recorded: much stronger suppression effect; LPS induced expression of IL-6 (mRNA, RT-PCR) [5]: strong inhibitory effect; LPS induced expression of TNF-α (mRNA, RT-PCR) [5]: strong inhibitory effect; induction of IL-1β (mRNA, RT-PCR) [5]: strongest suppression effect |
| CS(=O)(=O)c1ccc(C2=C(c3ccccc3)C(=O)OC2)cc1 [rofecoxib] | – | – | – | – | – | IC50 (COX-1 [8]): […]; IC50 (COX-2 [9]): 25 µM |
